Experimental data published in the NIST ThermoML archive (doi:10.1016/j.jct.2018.02.021).
Where “and” joins values, the source holds several entries; their conditions need not be identical. Identical values can stand only once.

Experiment: xn = mol fraction of the nth substance listed
Details: Gas, Buoyancy - hydrostatic balance with magnetic suspension - two sinkers

CC [ethane] + O=C=O
Details	mass density
273.15 K, 531.09 kPa, x1 = 0.2003	10.008 kg/m3
273.15 K, 531.52 kPa, x1 = 0.2003	10.0165 kg/m3
273.15 K, 531.92 kPa, x1 = 0.2003	10.0243 kg/m3
273.15 K, 534.39 kPa, x1 = 0.2003	10.0711 kg/m3
273.15 K, 534.79 kPa, x1 = 0.2003	10.0789 kg/m3
273.15 K, 535.19 kPa, x1 = 0.2003	10.087 kg/m3
273.15 K, 535.63 kPa, x1 = 0.2003	10.0955 kg/m3
273.15 K, 544.52 kPa, x1 = 0.2003	10.2735 kg/m3
273.15 K, 544.86 kPa, x1 = 0.2003	10.2801 kg/m3
273.15 K, 548.14 kPa, x1 = 0.4995	9.33133 kg/m3
273.15 K, 551.38 kPa, x1 = 0.05023	10.9267 kg/m3
273.15 K, 1023.8 kPa, x1 = 0.2003	20.0462 kg/m3
273.15 K, 1024.6 kPa, x1 = 0.2003	20.0627 kg/m3
273.15 K, 1025.4 kPa, x1 = 0.2003	20.0779 kg/m3
273.15 K, 1026.6 kPa, x1 = 0.2003	20.1024 kg/m3
273.15 K, 1027 kPa, x1 = 0.2003	20.1108 kg/m3
273.15 K, 1027.6 kPa, x1 = 0.2003	20.1219 kg/m3
273.15 K, 1037.4 kPa, x1 = 0.2003	20.3384 kg/m3
273.15 K, 1037.8 kPa, x1 = 0.2003	20.347 kg/m3
273.15 K, 1051.5 kPa, x1 = 0.4995	18.6959 kg/m3
273.15 K, 1075.8 kPa, x1 = 0.05023	22.195 kg/m3
273.15 K, 2035.1 kPa, x1 = 0.2003	43.7258 kg/m3
273.15 K, 2035.5 kPa, x1 = 0.2003	43.7371 kg/m3
273.15 K, 2050.8 kPa, x1 = 0.4995	40.4917 kg/m3
273.15 K, 2062 kPa, x1 = 0.05023	46.5645 kg/m3
273.15 K, 2554 kPa, x1 = 0.4995	53.9302 kg/m3
273.15 K, 2562.2 kPa, x1 = 0.05023	61.2253 kg/m3
273.15 K, 3037.3 kPa, x1 = 0.2003	73.9637 kg/m3
273.15 K, 3037.9 kPa, x1 = 0.2003	73.9838 kg/m3
273.15 K, 3053.1 kPa, x1 = 0.05023	77.9966 kg/m3
273.15 K, 3054.4 kPa, x1 = 0.4995	70.1143 kg/m3
273.15 K, 3480.6 kPa, x1 = 0.2003	91.4391 kg/m3 and 91.4331 kg/m3
273.15 K, 3488.2 kPa, x1 = 0.2003	91.7868 kg/m3
273.15 K, 3488.7 kPa, x1 = 0.2003	91.8117 kg/m3
273.15 K, 3489.4 kPa, x1 = 0.2003	91.84 kg/m3
273.15 K, 3507.2 kPa, x1 = 0.2003	92.6352 kg/m3 and 92.638 kg/m3
283.15 K, 518.17 kPa, x1 = 0.2003	9.36982 kg/m3
283.15 K, 519.18 kPa, x1 = 0.05023	9.86023 kg/m3
283.15 K, 538.66 kPa, x1 = 0.4995	8.79999 kg/m3
283.15 K, 1030 kPa, x1 = 0.05023	20.2371 kg/m3
283.15 K, 1031.7 kPa, x1 = 0.4995	17.4887 kg/m3
283.15 K, 1041.5 kPa, x1 = 0.2003	19.5141 kg/m3
283.15 K, 2018.1 kPa, x1 = 0.4995	37.3012 kg/m3
283.15 K, 2025.9 kPa, x1 = 0.05023	42.9555 kg/m3
283.15 K, 2038.1 kPa, x1 = 0.2003	41.2701 kg/m3
283.15 K, 3029.9 kPa, x1 = 0.05023	70.7861 kg/m3
283.15 K, 3032.8 kPa, x1 = 0.4995	62.9635 kg/m3
283.15 K, 3042.8 kPa, x1 = 0.2003	68.0188 kg/m3
283.15 K, 3546.2 kPa, x1 = 0.05023	88.2259 kg/m3
283.15 K, 3550.3 kPa, x1 = 0.4995	79.7057 kg/m3
283.15 K, 4013.1 kPa, x1 = 0.4995	98.6426 kg/m3
283.15 K, 4045.7 kPa, x1 = 0.05023	108.543 kg/m3
283.15 K, 4069.8 kPa, x1 = 0.2003	104.912 kg/m3
283.15 K, 4501.8 kPa, x1 = 0.2003	126.607 kg/m3
283.15 K, 4602.7 kPa, x1 = 0.2003	132.714 kg/m3
283.15 K, 4730.9 kPa, x1 = 0.2003	141.359 kg/m3
283.15 K, 4821.7 kPa, x1 = 0.2003	148.288 kg/m3
293.15 K, 519.57 kPa, x1 = 0.2003	9.04307 kg/m3
293.15 K, 525.66 kPa, x1 = 0.4995	8.25163 kg/m3
293.15 K, 1026.1 kPa, x1 = 0.4995	16.6496 kg/m3
293.15 K, 1034.3 kPa, x1 = 0.2003	18.5618 kg/m3
293.15 K, 2026.9 kPa, x1 = 0.2003	38.8656 kg/m3
293.15 K, 2045.8 kPa, x1 = 0.4995	35.8484 kg/m3
293.15 K, 3032.6 kPa, x1 = 0.4995	58.2406 kg/m3
293.15 K, 3042.1 kPa, x1 = 0.2003	63.2873 kg/m3
293.15 K, 4051.5 kPa, x1 = 0.4995	88.2376 kg/m3
293.15 K, 4055.4 kPa, x1 = 0.2003	93.5899 kg/m3
293.15 K, 4555.2 kPa, x1 = 0.4995	107.86 kg/m3
293.15 K, 5019.3 kPa, x1 = 0.4995	131.598 kg/m3
293.15 K, 5020.8 kPa, x1 = 0.2003	133.141 kg/m3
308.15 K, 542.53 kPa, x1 = 0.4995	8.06912 kg/m3
308.15 K, 1040.9 kPa, x1 = 0.4995	15.9143 kg/m3
308.15 K, 2034.5 kPa, x1 = 0.4995	33.0477 kg/m3
308.15 K, 3050.6 kPa, x1 = 0.4995	53.2563 kg/m3
308.15 K, 4038.3 kPa, x1 = 0.4995	76.6788 kg/m3
308.15 K, 4551.5 kPa, x1 = 0.4995	90.9786 kg/m3
308.15 K, 5013.9 kPa, x1 = 0.4995	105.639 kg/m3
323.15 K, 524.46 kPa, x1 = 0.05023	8.6271 kg/m3
323.15 K, 543.73 kPa, x1 = 0.4995	7.68033 kg/m3
323.15 K, 1024.4 kPa, x1 = 0.4995	14.7964 kg/m3
323.15 K, 1024.9 kPa, x1 = 0.05023	17.2074 kg/m3
323.15 K, 2039.4 kPa, x1 = 0.05023	35.7934 kg/m3
323.15 K, 2040.2 kPa, x1 = 0.4995	31.0101 kg/m3
323.15 K, 3036.4 kPa, x1 = 0.4995	48.806 kg/m3
323.15 K, 3038.7 kPa, x1 = 0.05023	55.972 kg/m3
323.15 K, 4027.4 kPa, x1 = 0.4995	68.9564 kg/m3
323.15 K, 4049.9 kPa, x1 = 0.05023	78.8065 kg/m3
323.15 K, 5024.6 kPa, x1 = 0.4995	92.5708 kg/m3
323.15 K, 5061.4 kPa, x1 = 0.05023	104.85 kg/m3
323.15 K, 5982.2 kPa, x1 = 0.4995	119.675 kg/m3
323.15 K, 6013.8 kPa, x1 = 0.05023	133.393 kg/m3
